Experimental findings from patent US11267826B2, “Penicillin-binding protein inhibitors” (priority 2017, dated 2022) are described below.

Bounds are passed on as bounds.

The test system of one assay is S. aureus ATCC 29213. Description: Broth microdilution MIC assay, S. aureus. Type of assay: cell-based. The following applies: Staphylococcus aureus, ATCC29213; broth microdilution, 16-20 hours at 37° C.; read-out: S. aureus 29213 MIC. The method, then:
(§1) To determine the ability of test compounds to potentiate the inhibition of the growth of bacterial strains, classic cell based broth microdilution MIC assays were employed. MIC assays are performed according to CLSI methods except where otherwise noted (CLSI, 2011 and CLSI, 2009). The reference strain S. aureus ATCC 29213 and the hyper-permeable E. coli 901C were used to determine the ability of the PBP compounds to inhibit bacterial growth. Briefly, cryo-preserved bacterial cultures of clinical strains are streaked for isolation on appropriate agar medium, in this case Mueller Hinton II agar. Following incubation to allow formation of colonies these plates are sealed with parafilm and stored refrigerated for up to two weeks. For preparation of assay inocula and to ensure low variability, at least 5 colonies are picked from the agar plates with an inoculating loop and aseptically transferred to a culture tube containing 3 mL of Mueller-Hinton Broth (supplemented with divalent cations to required levels based on Manufacturers' certification). The broth culture is grown for 3-5 hours at 37° C. with shaking at 200 rpm. Meanwhile, 2-fold serial dilutions of test compounds are conducted in a 96 well plate with a final volume of 75 μL per well at 2-fold the final desired concentration. After the dilution plates are set up the growing cultures are then diluted in a cuvette containing MH II broth and the optical density is measured at 600 nm. Inocula are diluted such that 75 μL of this culture in Mueller-Hinton Broth results in a starting bacterial concentration of 5×10^5 CFU/mL when added to the dilution plates. The plates are incubated 16-20 hours at 37° C. The MIC is read visually as the lowest concentration well with no bacterial growth.
Background: Dilution methods test growth across graded concentrations, often in twofold steps.

Assay [1] has as its system hyper-permeable E. coli 901C. The assay is described as follows: Broth microdilution MIC assay, hyper-permeable E. coli. Type of assay: cell-based. The following applies: Escherichia coli, read-out: E. coli 901C MIC. Here is the method: as §1

Broadly, the MIC is the lowest concentration that inhibits growth of the organism. `CO/N=C(\C(=O)N[C@H]1Cc2cccc(C(=O)O)c2OB1O)c1nsc(N)n1` [Example 2, (R,Z)-3-(2-(5-amino-1,2,4-thiadiazol-3-yl)-2-(methoxyimino)acetamido)-2-hydroxy-3,4-dihydro-2H-benzo[e][1,2]oxaborinine-8-carboxylic Acid]: the MIC is greater than 128 µg/mL in the assay on S. aureus ATCC 29213 and less than 64 µg/mL in assay [1].
Turning to `Nc1nc(/C(=N/O)C(=O)N[C@H]2Cc3ccc(F)c(C(=O)O)c3OB2O)cs1` [Example 39, (R,Z)-3-(2-(2-aminothiazol-4-yl)-2-(hydroxyimino)acetamido)-7-fluoro-2-hydroxy-3,4-dihydro-2H-benzo[e][1,2]oxaborinine-8-carboxylic Acid], the minimum inhibitory concentration (MIC) (in the assay on S. aureus ATCC 29213; in assay [1]) was less than 64 µg/mL each time.
Turning to `Nc1nc(/C(=N/O)C(=O)N[C@H]2Cc3cc(O)cc(C(=O)O)c3OB2O)cs1` [Example 43, (R,Z)-3-(2-(2-aminothiazol-4-yl)-2-(hydroxyimino)acetamido)-2,6-dihydroxy-3,4-dihydro-2H-benzo[e][1,2]oxaborinine-8-carboxylic Acid], the results for the MIC (in the assay on S. aureus ATCC 29213; in assay [1]) were less than 64 µg/mL and 64 to 128 µg/mL, respectively.
Taken in the same sequence, the figures for `Nc1nc(/C(=N/OCCCCl)C(=O)N[C@H]2Cc3cccc(C(=O)O)c3OB2O)cs1` [Example 115, (R,Z)-3-(2-(2-aminothiazol-4-yl)-2-((3-chloropropoxy)imino)acetamido)-2-hydroxy-3,4-dihydro-2H-benzo[e][1,2]oxaborinine-8-carboxylic Acid] were greater than 128 µg/mL and less than 64 µg/mL.
For the molecule `Nc1cc(/C(=N\O)C(=O)N[C@H]2Cc3cccc(C(=O)O)c3OB2O)ccn1` [Example 15, (R,E)-3-(2-(2-aminopyridin-4-yl)-2-(hydroxyimino)acetamido)-2-hydroxy-3,4-dihydro-2H-benzo[e][1,2]oxaborinine-8-carboxylic Acid], the MIC was 64 to 128 µg/mL with S. aureus ATCC 29213 and greater than 128 µg/mL in assay [1].
On the same counts, the results for `O=C(N[C@H]1Cc2cccc(C(=O)O)c2OB1O)/C(=N/O)c1nnn[nH]1` [Example 103, (R,E)-2-hydroxy-3-(2-(hydroxyimino)-2-(1H-tetrazol-5-yl)acetamido)-3,4-dihydro-2H-benzo[e][1,2]oxaborinine-8-carboxylic Acid] are greater than 128 µg/mL and greater than 128 µg/mL.
Taken in the same sequence, the figures for `CS(=O)(=O)NCCO/N=C(\C(=O)N[C@H]1Cc2cccc(C(=O)O)c2OB1O)c1csc(N)n1` [Example 120, (R,Z)-3-(2-(2-aminothiazol-4-yl)-2-((2-(methylsulfonamido)ethoxy)imino)acetamido)-2-hydroxy-3,4-dihydro-2H-benzo[e][1,2]oxaborinine-8-carboxylic Acid] were greater than 128 µg/mL and 64 to 128 µg/mL.
Regarding `O=C(N[C@H]1Cc2cccc(C(=O)O)c2OB1O)/C(Cn1nccn1)=N\O` [Example 127, (R,Z)-2-hydroxy-3-(2-(hydroxyimino)-3-(2H-1,2,3-triazol-2-yl)propanamido)-3,4-dihydro-2H-benzo[e][1,2]oxaborinine-8-carboxylic Acid], the MIC (in the assay on S. aureus ATCC 29213; in assay [1]) was greater than 128 µg/mL throughout.
Regarding `CC(C)(O/N=C(\C(=O)N[C@H]1Cc2cccc(C(=O)O)c2OB1O)c1csc(N)n1)C(=O)N[C@@H](CCC(=O)O)C(=O)O` [Example 77, (2-((((Z)-1-(2-aminothiazol-4-yl)-2-(((R)-8-carboxy-2-hydroxy-3,4-dihydro-2H-benzo[e][1,2]oxaborinin-3-yl)amino)-2-oxoethylidene)amino)oxy)-2-methylpropanoyl)-L-glutamic Acid], the minimum inhibitory concentration (MIC) with S. aureus ATCC 29213 is greater than 128 µg/mL; in assay [1], less than 64 µg/mL.
`Nc1nc(C(CC(=O)O)C(=O)N[C@H]2Cc3cccc(C(=O)O)c3OB2O)cs1` (mixture of isomers) [Example 99, (3R)-3-(2-(2-aminothiazol-4-yl)-3-carboxypropanamido)-2-hydroxy-3,4-dihydro-2H-benzo[e][1,2]oxaborinine-8-carboxylic Acid]: the MIC is greater than 128 µg/mL with S. aureus ATCC 29213 and 64 to 128 µg/mL in assay [1].
Regarding `Nc1nc(/C(=N/O)C(=O)N[C@H]2Cc3cccc(C(=O)O)c3OB2O)ns1` [Example 19, (R,Z)-3-(2-(5-amino-1,2,4-thiadiazol-3-yl)-2-(hydroxyimino)acetamido)-2-hydroxy-3,4-dihydro-2H-benzo[e][1,2]oxaborinine-8-carboxylic Acid], the minimal inhibitory concentration (MIC) was 64 to 128 µg/mL in the assay on S. aureus ATCC 29213 and greater than 128 µg/mL in assay [1].
Taken in the same sequence, the figures for `O=C(O)CO/N=C(/Cn1cncn1)C(=O)N[C@H]1Cc2cccc(C(=O)O)c2OB1O` [Example 112, (R,Z)-3-(2-((carboxymethoxy)imino)-3-(1H-1,2,4-triazol-1-yl)propanamido)-2-hydroxy-3,4-dihydro-2H-benzo[e][1,2]oxaborinine-8-carboxylic Acid] were greater than 128 µg/mL and greater than 128 µg/mL.
On the same counts, the results for `Nc1nc(/C(=N/OC2CNC2)C(=O)N[C@H]2Cc3cccc(C(=O)O)c3OB2O)cs1` [Example 53, (R,Z)-3-(2-(2-aminothiazol-4-yl)-2-((azetidin-3-yloxy)imino)acetamido)-2-hydroxy-3,4-dihydro-2H-benzo[e][1,2]oxaborinine-8-carboxylic Acid] are greater than 128 µg/mL and 64 to 128 µg/mL.
On the same counts, the results for `Nc1nc(/C(=N/O)C(=O)N[C@H]2Cc3c(F)c(F)cc(C(=O)O)c3OB2O)cs1` [Example 40, (R,Z)-3-(2-(2-aminothiazol-4-yl)-2-(hydroxyimino)acetamido)-5,6-difluoro-2-hydroxy-3,4-dihydro-2H-benzo[e][1,2]oxaborinine-8-carboxylic Acid] are less than 64 µg/mL and greater than 128 µg/mL.
With `O=C(N[C@H]1Cc2cccc(C(=O)O)c2OB1O)/C(=N\O)c1ccccc1` [Example 83, (R,Z)-2-hydroxy-3-(2-(hydroxyimino)-2-phenylacetamido)-3,4-dihydro-2H-benzo[e][1,2]oxaborinine-8-carboxylic Acid], the values for the minimal inhibitory concentration (MIC) (in the assay with S. aureus ATCC 29213; in assay [1]) were less than 64 µg/mL and greater than 128 µg/mL, respectively.
On the same counts, the results for `Nc1nc(/C(=N/O)C(=O)N[C@H]2Cc3cc(F)cc(C(=O)O)c3OB2O)cs1` [Example 32, (R,Z)-3-(2-(2-aminothiazol-4-yl)-2-(hydroxyimino)acetamido)-6-fluoro-2-hydroxy-3,4-dihydro-2H-benzo[e][1,2]oxaborinine-8-carboxylic Acid] are less than 64 µg/mL and less than 64 µg/mL.
On to `COC(=O)CCc1cc2c(c(C(=O)O)c1)OB(O)[C@@H](NC(=O)/C(=N\O)c1csc(N)n1)C2` [Example 36, (R,Z)-3-(2-(2-aminothiazol-4-yl)-2-(hydroxyimino)acetamido)-2-hydroxy-6-(3-methoxy-3-oxopropyl)-3,4-dihydro-2H-benzo[e][1,2]oxaborinine-8-carboxylic Acid], for which the minimal inhibitory concentration (MIC) in the assay on S. aureus ATCC 29213 is less than 64 µg/mL.
On the same count and under the same terms, to `C[N+]1(Cc2ccc3c(c2C(=O)[O-])OB(O)[C@@H](NC(=O)/C(=N\O)c2csc(N)n2)C3)CCC(CO)CC1` (stereo partly drawn) [Example 30, (R,Z)-3-(2-(2-aminothiazol-4-yl)-2-(hydroxyimino)acetamido)-2-hydroxy-7-((4-(hydroxymethyl)-1-methylpiperidin-1-ium-1-yl)methyl)-3,4-dihydro-2H-benzo[e][1,2]oxaborinine-8-carboxylate] belongs less than 64 µg/mL; to `CN(CC(=O)O)Cc1ccc2c(c1C(=O)O)OB(O)[C@@H](NC(=O)/C(=N\O)c1csc(N)n1)C2` [Example 31, (R,Z)-3-(2-(2-aminothiazol-4-yl)-2-(hydroxyimino)acetamido)-7-(((carboxymethyl)(methyl)amino)methyl)-2-hydroxy-3,4-dihydro-2H-benzo[e][1,2]oxaborinine-8-carboxylic Acid], greater than 128 µg/mL.
Same read-out and setting: to `C[N+]1(Cc2cc3c(c(C(=O)[O-])c2)OB(O)[C@@H](NC(=O)/C(=N\O)c2csc(N)n2)C3)CCCC1` [Example 34, (R,Z)-3-(2-(2-aminothiazol-4-yl)-2-(hydroxyimino)acetamido)-2-hydroxy-6-((1-methylpyrrolidin-1-ium-1-yl)methyl)-3,4-dihydro-2H-benzo[e][1,2]oxaborinine-8-carboxylate] belongs less than 64 µg/mL.
On the same count and under the same terms, for `Nc1nc(/C(=N/O)C(=O)N[C@H]2Cc3ccc(CN4CCC(CO)CC4)c(C(=O)O)c3OB2O)cs1` [Example 29, (R,Z)-3-(2-(2-aminothiazol-4-yl)-2-(hydroxyimino)acetamido)-2-hydroxy-7-((4-(hydroxymethyl)piperidin-1-yl)methyl)-3,4-dihydro-2H-benzo[e][1,2]oxaborinine-8-carboxylic Acid] the value was greater than 128 µg/mL; for `Nc1nc(/C(=N/O)C(=O)N[C@H]2Cc3cc(C(=O)O)cc(C(=O)O)c3OB2O)cs1` [Example 38, (R,Z)-3-(2-(2-aminothiazol-4-yl)-2-(hydroxyimino)acetamido)-2-hydroxy-3,4-dihydro-2H-benzo[e][1,2]oxaborinine-6,8-dicarboxylic Acid], greater than 128 µg/mL; for `C[N+]1(Cc2ccc3c(c2C(=O)[O-])OB(O)[C@@H](NC(=O)/C(=N\O)c2csc(N)n2)C3)CCCC1` [Example 26, (R,Z)-3-(2-(2-aminothiazol-4-yl)-2-(hydroxyimino)acetamido)-2-hydroxy-7-((1-methylpyrrolidin-1-ium-1-yl)methyl)-3,4-dihydro-2H-benzo[e][1,2]oxaborinine-8-carboxylate], less than 64 µg/mL.
